Source: PubChem BioAssay AID1918957 (Molecular Pharmacology Branch, DTP, NCI, 2023)
Active and inactive are the calls of the source. The calls were made as follows: active = viability on the fitted dose curve at most 10% of control; inactive = the rest.

Tested on: NCI-H1876 complex spheroid viability
Assay: Anticancer human tumor NCI-H1876 cell line growth inhibition [LSD1];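 as to IC50: spheroids exposed to compounds for one week before readout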;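 as to viability, T/C: spheroids exposed to compounds for one week before readout; 100% = DMSO vehicle-treated spheroids so lower means fewer viable cells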
Details: for IC50: curve of first compound; for viability, T/C: stronger effect = lower value
In short: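 Drug combinations with the LSD1 inhibitor iadademstat tested on tumor cells co-cultured as spheroids with endothelial cells and mesenchymal stem cells. Concentrations descended in half-log increments from clinical Cmax or 10 microM.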

[1] = second compound 0.1 µM, first compound 0.00949 µM
[2] = second compound 0.1 µM, first compound 0.03 µM
[3] = second compound 0.1 µM, first compound 0.0949 µM
[4] = second compound 0.1 µM, first compound 0.3 µM
[5] = second compound 0.316 µM, first compound 0.00949 µM
[6] = second compound 0.316 µM, first compound 0.03 µM
[7] = second compound 0.316 µM, first compound 0.0949 µM
[8] = second compound 0.316 µM, first compound 0.3 µM
[9] = second compound 1 µM, first compound 0.00949 µM
[10] = second compound 1 µM, first compound 0.03 µM
[11] = second compound 1 µM, first compound 0.0949 µM
[12] = second compound 1 µM, first compound 0.3 µM
[13] = second compound 3.16 µM, first compound 0.00949 µM
[14] = second compound 3.16 µM, first compound 0.03 µM
[15] = second compound 3.16 µM, first compound 0.0949 µM
[16] = second compound 3.16 µM, first compound 0.3 µM
[17] = second compound 10 µM, first compound 0.00949 µM
[18] = second compound 10 µM, first compound 0.03 µM
[19] = second compound 10 µM, first compound 0.0949 µM
[20] = second compound 10 µM, first compound 0.3 µM

With Nc1ccn(C2OC(CO)C(O)C2(F)F)c(=O)n1 (stereo not given) + NC1CC1c1ccc(-c2cccc(O)c2)cc1 the IC50 (second compound 0.1 µM) was 6.24 nM, the IC50 (second compound 0.316 µM) was 6.23 nM and the IC50 (second compound 1 µM) was 6.24 nM. For the same compound, the IC50 (second compound 3.16 µM) was 6.33 nM, the IC50 (second compound 10 µM) was 6.89 nM and the viability, T/C (second compound 0.1 µM, first compound 0.000949 µM) was 104%. For the same compound, the viability, T/C (second compound 0.1 µM, first compound 0.003 µM) was 93.9%, the viability, T/C [1] was 24.8% and the viability, T/C [2] was 9.9%. For the same compound, the viability, T/C [3] was 8.25%, the viability, T/C [4] was 7.07% and the viability, T/C (second compound 0.316 µM, first compound 0.000949 µM) was 103%. It also gave a viability, T/C (second compound 0.316 µM, first compound 0.003 µM) of 91.5%, a viability, T/C [5] of 26% and a viability, T/C [6] of 10.9%. For the same compound, the viability, T/C [7] was 7.72%, the viability, T/C [8] was 7.02% and the viability, T/C (second compound 1 µM, first compound 0.000949 µM) was 108%. For the same compound, the viability, T/C (second compound 1 µM, first compound 0.003 µM) was 87.2%, the viability, T/C [9] was 28.7% and the viability, T/C [10] was 9.78%. The viability, T/C [11] was 8.57%, the viability, T/C [12] was 7.79% and the viability, T/C (second compound 3.16 µM, first compound 0.000949 µM) was 104%. The viability, T/C (second compound 3.16 µM, first compound 0.003 µM) was 87%, the viability, T/C [13] was 29.9% and the viability, T/C [14] was 10.1%. The viability, T/C [15] was 8.03%, the viability, T/C [16] was 7.36% and the viability, T/C (second compound 10 µM, first compound 0.000949 µM) was 101%. For the same compound, the viability, T/C (second compound 10 µM, first compound 0.003 µM) was 91.4%, the viability, T/C [17] was 34% and the viability, T/C [18] was 13.2%. For the same compound, the viability, T/C [19] was 10.4% and the viability, T/C [20] was 11.8%.
CCN(c1cc(-c2ccc(CN3CCOCC3)cc2)cc(C(=O)NCc2c(C)cc(C)[nH]c2=O)c1C)C1CCOCC1 + NC1CC1c1ccc(-c2cccc(O)c2)cc1 was tested, and the IC50 (second compound 0.1 µM) was greater than 3000 nM, the IC50 (second compound 0.316 µM) was greater than 3000 nM and the IC50 (second compound 1 µM) was greater than 3000 nM. The IC50 (second compound 3.16 µM) was greater than 3000 nM, the IC50 (second compound 10 µM) was greater than 3000 nM and the viability, T/C [1] was 110%. For the same compound, the viability, T/C [2] was 109%, the viability, T/C [3] was 110% and the viability, T/C [4] was 99.6%. For the same compound, the viability, T/C (second compound 0.1 µM, first compound 0.949 µM) was 86.6%, the viability, T/C (second compound 0.1 µM, first compound 3 µM) was 54.8% and the viability, T/C [5] was 102%. It also gave a viability, T/C [6] of 106%, a viability, T/C [7] of 102% and a viability, T/C [8] of 94.1%. The viability, T/C (second compound 0.316 µM, first compound 0.949 µM) was 77.3%, the viability, T/C (second compound 0.316 µM, first compound 3 µM) was 54.1% and the viability, T/C [9] was 111%. It also gave a viability, T/C [10] of 112%, a viability, T/C [11] of 104% and a viability, T/C [12] of 102%. For the same compound, the viability, T/C (second compound 1 µM, first compound 0.949 µM) was 88.2%, the viability, T/C (second compound 1 µM, first compound 3 µM) was 60% and the viability, T/C [13] was 109%. For the same compound, the viability, T/C [14] was 108%, the viability, T/C [15] was 107% and the viability, T/C [16] was 97.5%. For the same compound, the viability, T/C (second compound 3.16 µM, first compound 0.949 µM) was 83.8%, the viability, T/C (second compound 3.16 µM, first compound 3 µM) was 57.8% and the viability, T/C [17] was 106%. The viability, T/C [18] was 99.9%, the viability, T/C [19] was 111% and the viability, T/C [20] was 100%. The viability, T/C (second compound 10 µM, first compound 0.949 µM) was 79.9% and the viability, T/C (second compound 10 µM, first compound 3 µM) was 55.3%.
In the case of CC[C@@]1(O)C(=O)OCc2c1cc1n(c2=O)Cc2cc3c(CN(C)C)c(O)ccc3nc2-1 + NC1CCC(NC2CC2c2ccccc2)CC1, the IC50 (second compound 0.1 µM) is reported as 1.61 nM, the IC50 (second compound 0.316 µM) is reported as 2.15 nM and the IC50 (second compound 1 µM) is reported as 2.14 nM. For the same compound, the IC50 (second compound 3.16 µM) was 2.18 nM, the IC50 (second compound 10 µM) was 2.02 nM and the viability, T/C (second compound 0.1 µM, first compound 0.000316 µM) was 105%. For the same compound, the outcome (second compound 0.1 µM, first compound 0.001 µM) was “inactive”, the viability, T/C (second compound 0.1 µM, first compound 0.00316 µM) was 33.1% and the viability, T/C (second compound 0.1 µM, first compound 0.01 µM) was 23.1%. It also gave a viability, T/C (second compound 0.1 µM, first compound 0.0316 µM) of 12.1%, a viability, T/C (second compound 0.1 µM, first compound 0.1 µM) of 16.7% and a viability, T/C (second compound 0.316 µM, first compound 0.000316 µM) of 110%. It also gave a viability, T/C (second compound 0.316 µM, first compound 0.001 µM) of 94.2%, a viability, T/C (second compound 0.316 µM, first compound 0.00316 µM) of 27.5% and a viability, T/C (second compound 0.316 µM, first compound 0.01 µM) of 29.9%. It also gave a viability, T/C (second compound 0.316 µM, first compound 0.0316 µM) of 17.3%, a viability, T/C (second compound 0.316 µM, first compound 0.1 µM) of 14.7% and a viability, T/C (second compound 1 µM, first compound 0.000316 µM) of 113%. For the same compound, the viability, T/C (second compound 1 µM, first compound 0.001 µM) was 92.3%, the viability, T/C (second compound 1 µM, first compound 0.00316 µM) was 27.6% and the viability, T/C (second compound 1 µM, first compound 0.01 µM) was 31.8%. For the same compound, the viability, T/C (second compound 1 µM, first compound 0.0316 µM) was 18.4%, the viability, T/C (second compound 1 µM, first compound 0.1 µM) was 8.81% and the viability, T/C (second compound 3.16 µM, first compound 0.000316 µM) was 112%. For the same compound, the viability, T/C (second compound 3.16 µM, first compound 0.001 µM) was 102%, the viability, T/C (second compound 3.16 µM, first compound 0.00316 µM) was 25% and the viability, T/C (second compound 3.16 µM, first compound 0.01 µM) was 19.3%. The viability, T/C (second compound 3.16 µM, first compound 0.0316 µM) was 19%, the viability, T/C (second compound 3.16 µM, first compound 0.1 µM) was 9.21% and the viability, T/C (second compound 10 µM, first compound 0.000316 µM) was 112%. It also gave a viability, T/C (second compound 10 µM, first compound 0.001 µM) of 90.3%, a viability, T/C (second compound 10 µM, first compound 0.00316 µM) of 24.2% and a viability, T/C (second compound 10 µM, first compound 0.01 µM) of 24.3%. It also gave a viability, T/C (second compound 10 µM, first compound 0.0316 µM) of 20% and a viability, T/C (second compound 10 µM, first compound 0.1 µM) of 19.4%.
